Like-named read-outs stand apart in the source and are kept apart here.
Legend:
[1] = target: T1, OX2 (Homo sapiens, UniProt O43614); test: Measurement of orexin receptor-binding ability ([125I]-OX-A, cell membranes, OX2); design: expressed in transfected cells; host or cells: CHO cells (membrane preparation); conditions: membranes of recombinant CHO cells expressing OX2, 0.2 nM [125I]-OX-A
T1 sequence (O43614 1-444): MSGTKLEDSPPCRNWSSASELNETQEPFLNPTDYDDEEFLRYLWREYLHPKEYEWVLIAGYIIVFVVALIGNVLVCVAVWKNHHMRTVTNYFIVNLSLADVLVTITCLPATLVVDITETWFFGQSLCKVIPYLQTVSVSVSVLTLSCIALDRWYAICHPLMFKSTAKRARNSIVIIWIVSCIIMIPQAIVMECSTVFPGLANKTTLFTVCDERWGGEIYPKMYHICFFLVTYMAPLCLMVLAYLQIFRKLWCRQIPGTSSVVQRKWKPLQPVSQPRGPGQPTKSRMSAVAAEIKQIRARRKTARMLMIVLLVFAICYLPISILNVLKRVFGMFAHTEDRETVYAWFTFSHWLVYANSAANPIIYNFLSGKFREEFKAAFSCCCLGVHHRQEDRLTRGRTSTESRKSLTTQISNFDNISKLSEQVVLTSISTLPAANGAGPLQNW
Experimental: (§1) 1. Measurement of Orexin Receptor-Binding Ability
(§2) The assay was carried out using a 96-well Wheat Germ Agglutinin Flash Plate (PerkinElmer). The volume in a single assay well was 100 ul, and the composition of the reaction solution was as follows:
(§3) 25 mM HEPES (pH 7.5), 1 mM CaCl2, 4.5 mM MgCl2, 0.5% BSA (bovine serum albumin), 0.1% sodium azide, 0.05% Tween-20, and 0.2% DMSO.
(§4) Cell membranes were prepared from recombinant CHO cells that expressed OX2 or OX1. The cell membranes were used in an amount of 5 μg protein/assay. […] Finally, the radioactivity of each well was measured using a scintillation counter (TopCount, PerkinElmer).

[2] = target: T2, OX1 (Homo sapiens, UniProt O43613); test: Measurement of orexin receptor-binding ability ([125I]-OX-A, cell membranes, OX1); design: expressed in transfected cells; host or cells: CHO cells (membrane preparation)
T2 sequence (O43613 1-425): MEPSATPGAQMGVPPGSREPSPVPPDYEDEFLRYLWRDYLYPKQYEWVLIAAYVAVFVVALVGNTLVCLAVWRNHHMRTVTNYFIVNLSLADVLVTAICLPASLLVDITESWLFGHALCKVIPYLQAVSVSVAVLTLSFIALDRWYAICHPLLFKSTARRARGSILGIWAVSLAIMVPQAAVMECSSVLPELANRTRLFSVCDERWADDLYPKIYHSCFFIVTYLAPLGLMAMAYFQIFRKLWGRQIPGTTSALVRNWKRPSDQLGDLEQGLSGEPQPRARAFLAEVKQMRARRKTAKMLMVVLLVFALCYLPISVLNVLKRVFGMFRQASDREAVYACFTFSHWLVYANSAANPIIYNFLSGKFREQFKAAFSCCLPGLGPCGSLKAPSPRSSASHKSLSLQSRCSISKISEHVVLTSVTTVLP
Experimental: as §1, §2, §3, §4

[3] = membranes of recombinant CHO cells expressing OX1, 0.2 nM [125I]-OX-A, read-out: OX1 (IC50)

| Compound | IC50 ([1]; read-out: OX2 (IC50)) [nM] | IC50 [2, 3] [nM] | IC50 ([1]; OX2 (IC50) nM) [nM] | IC50 [2] [nM] |
| --- | --- | --- | --- | --- |
| COc1cc(NC(=O)[C@@H]2C[C@@]2(COc2cnc(C)nc2C)c2cc(F)cc(F)c2)ncc1F [Example 138, (1R,2S)-2-(3,5-difluorophenyl)-2-{[(2,4-dimethylpyrimidin-5-yl)oxy]methyl}-N-(5-fluoro-4-methoxypyridin-2-yl)cyclopropanecarboxamide] | 2.4 | 2.6 | – | – |
| COCc1cc(NC(=O)[C@@H]2C[C@@]2(COc2cnc(C)nc2C)c2ccc(F)cc2)ncc1F [Example 109, (1R,2S)-2-{[(2,4-dimethylpyrimidin-5-yl)oxy]methyl}-N-(5-fluoro-4-methoxymethylpyridin-2-yl)-2-(4-fluorophenyl)cyclopropanecarboxamide] | – | – | 5.8 | 12 |
| Cc1ncc(OC[C@@]2(c3ccc(F)c(F)c3)C[C@H]2C(=O)Nc2ccc(C#N)cn2)c(C)n1 [Example 167, (1R,2S)-N-(5-cyanopyridin-2-yl)-2-(3,4-difluorophenyl)-2-{[(2,4-dimethylpyrimidin-5-yl)oxy]methyl}cyclopropanecarboxamide] | – | – | 10 | 38 |
| COc1cccc(C2(COc3cnc(C)nc3C)CC2C(=O)Nc2cccnc2)c1 (centres unmarked) [Example 184] | 21 | 784 | – | – |
| Cc1ncc(OC[C@@]2(c3cccc(F)c3)C[C@H]2C(=O)Nc2cc(Cl)ccn2)c(C)n1 [Example 85, (1R,2S)-N-(4-chloropyridin-2-yl)-2-{[(2,4-dimethylpyrimidin-5-yl)oxy]methyl}-2-(3-fluorophenyl)cyclopropanecarboxamide] | – | – | 5 | 4 |
| Cc1ncc(OC[C@@]2(c3ccccc3)C[C@H]2C(=O)Nc2cc(F)cc(C#N)c2)c(C)n1 [Example 34] | – | – | 18 | 430 |
| Cc1ncc(OC[C@@]2(c3ccccc3)C[C@H]2C(=O)Nc2cccc(F)n2)c(C)n1 [Example 68] | – | – | 56 | 140 |
| COCc1ccnc(NC(=O)[C@@H]2C[C@@]2(COc2cnc(C)nc2C)c2ccccc2)c1 [Example 14] | 16 | 302 | – | – |
| Cc1ncc(OCC2(c3cccc(C(F)(F)F)c3)CC2C(=O)Nc2ccc(Cl)cn2)c(C)n1 (centres unmarked) [Example 265] | – | – | 10 | 43 |
| COc1cccc(C2(COc3cnc(C)nc3C)CC2C(=O)Nc2ccc(C#N)cn2)c1 (centres unmarked) [Example 183] | – | – | 42 | 337 |
| Cc1ncc(OC[C@@]2(c3ccc(F)cc3)C[C@H]2C(=O)Nc2ccccn2)c(C)n1 [Example 110] | – | – | 110 | 340 |
| Cc1ncc(N(C)C[C@@]2(c3cccc(F)c3)C[C@H]2C(=O)Nc2cc(C)c(F)cn2)c(C)n1 [Example 293] | 9 | 79 | – | – |
| CCc1ncc(OC[C@@]2(c3ccccc3)C[C@H]2C(=O)Nc2ccc(Cl)cn2)c(C)n1 [Example 128, (1R,2S)-N-(5-chloropyridin-2-yl)-2-{[(2-ethyl-4-methylpyrimidin-5-yl)oxy]methyl}-2-phenylcyclopropanecarboxamide] | 75 | 231 | – | – |
| CCc1nc(C)ncc1OC[C@@]1(c2cccc(F)c2)C[C@H]1C(=O)Nc1ccc(F)cn1 [Example 241, (1R,2S)-2-{[(4-ethyl-2-methylpyrimidin-5-yl)oxy]methyl}-2-(3-fluorophenyl)-N-(5-fluoropyridin-2-yl)cyclopropanecarboxamide] | – | – | 2.2 | 2 |
| CCc1nc(C)ncc1OC[C@@]1(c2cccc(F)c2)C[C@H]1C(=O)Nc1ccc(Cl)cn1 [Example 243, (1R,2S)-N-(5-chloropyridin-2-yl)-2-{[(4-ethyl-2-methylpyrimidin-5-yl)oxy]methyl}-2-(3-fluorophenyl)cyclopropanecarboxamide] | – | – | 3.3 | 2 |
| Cc1ncc(OC[C@@]2(c3cccc(F)c3)C[C@H]2C(=O)Nc2cnc(F)c(C)c2)c(C)n1 [Example 91] | – | – | 22 | 215 |
| Cc1ncc(OC[C@@]2(c3ccc(Br)cc3)C[C@H]2C(=O)Nc2ccc(Cl)cn2)c(C)n1 [Example 273, (1R,2S)-2-(4-bromophenyl)-N-(5-chloropyridin-2-yl)-2-{[(2,4-dimethylpyrimidin-5-yl)oxy]methyl}cyclopropanecarboxamide] | – | – | 10 | 69 |

| Compound | IC50 ([1]; read-out: OX2 (IC50)) [nM] | IC50 [2, 3] [nM] | IC50 ([1]; OX2 (IC50) nM) [nM] | IC50 [2] [nM] |
| --- | --- | --- | --- | --- |
| Cc1ncc(OC[C@@]2(c3ccccc3)C[C@H]2C(=O)Nc2cnc(Cl)c(Br)c2)c(C)n1 [Example 59] | 51 | 1410 | – | – |
| Cc1ncc(OC[C@@]2(c3ccccc3)C[C@H]2C(=O)Nc2ccc(Cl)c(C#N)c2)c(C)n1 [Example 27] | 15 | 169 | – | – |
| COc1cccc(NC(=O)[C@@H]2C[C@@]2(COc2cnc(C)nc2C)c2ccccc2)n1 [Example 11] | 53 | 279 | – | – |
| CCc1nc(C)ncc1OC[C@@]1(c2ccc(F)cc2)C[C@H]1C(=O)Nc1ccccn1 [Example 245, (1R,2S)-2-{[(4-ethyl-2-methylpyrimidin-5-yl)oxy]methyl}-2-(4-fluorophenyl)-N-(pyridin-2-yl)cyclopropanecarboxamide] | – | – | 10 | 64 |
| Cc1ncc(OCC2(c3cccc(Cl)c3)CC2C(=O)Nc2ccc(C#N)cn2)c(C)n1 (centres unmarked) [Example 156] | – | – | 13 | 42 |
| Cc1cccc(C2(COc3cnc(C)nc3C)CC2C(=O)Nc2cccnc2)c1 (centres unmarked) [Example 177] | 84 | 334 | – | – |
| Cc1ncc(OC[C@@]2(c3ccccc3)C[C@H]2C(=O)Nc2cccc(C#N)c2)c(C)n1 [Example 80] | – | – | 16 | 54 |
| Cc1ncc(OCC2(c3cccc(Cl)c3)CC2C(=O)Nc2ccc(F)cn2)c(C)n1 (centres unmarked) [Example 154] | – | – | 7 | 6 |
| Cc1ncc(OC[C@@]2(c3ccsc3)C[C@H]2C(=O)Nc2ccc(F)cn2)c(C)n1 [Example 270] | – | – | 58 | 264 |
| COCCc1nc(C)ncc1OC[C@@]1(c2cccc(F)c2)C[C@H]1C(=O)Nc1cc(C)c(F)cn1 [Example 229, (1R,2S)-N-(5-fluoro-4-methylpyridin-2-yl)-2-(3-fluorophenyl)-2-{[(4-methoxyethyl-2-methylpyrimidin-5-yl)oxy]methyl}cyclopropanecarboxamide] | – | – | 4 | 19 |
| Cc1nc(CO)ncc1OC[C@@]1(c2cccc(F)c2)C[C@H]1C(=O)Nc1ccc(F)cn1 [Example 323, (1R,2S)-2-(3-fluorophenyl)-N-(5-fluoropyridin-2-yl)-2-{[(2-hydroxymethyl-4-methylpyrimidin-5-yl)oxy]methyl}cyclopropanecarboxamide] | – | – | 2.6 | 32.6 |
| COc1ccnc(NC(=O)[C@@H]2C[C@@]2(COc2cnc(C)nc2C)c2ccccc2)c1 [Example 50] | – | – | 13 | 12 |
| Cc1ncc(OC[C@@]2(c3cc(F)cc(F)c3)C[C@H]2C(=O)Nc2ccc(C#N)cn2)c(C)n1 [Example 137, (1R,2S)-N-(5-cyanopyridin-2-yl)-2-(3,5-difluorophenyl)-2-{[(2,4-dimethylpyrimidin-5-yl)oxy]methyl}cyclopropanecarboxamide] | – | – | 4 | 97 |
| Cc1ncc(OC[C@@]2(c3ccccc3)C[C@H]2C(=O)Nc2ccc3c(c2)N(C)C(=O)CO3)c(C)n1 [Example 22] | 17 | 273 | – | – |
| CCc1nc(C)ncc1OC[C@@]1(c2cccc(F)c2)C[C@H]1C(=O)Nc1ccc(C#N)cn1 [Example 242, (1R,2S)-N-(5-cyanopyridin-2-yl)-2-{[(4-ethyl-2-methylpyrimidin-5-yl)oxy]methyl}-2-(3-fluorophenyl)cyclopropanecarboxamide] | 4 | 6 | – | – |
| Cc1ncc(OC[C@@]2(c3ccccc3)C[C@H]2C(=O)Nc2ccc3c(c2)NC(=O)CO3)c(C)n1 [Example 23] | 67 | 1700 | – | – |
| COc1cc(NC(=O)[C@@H]2C[C@@]2(COc2cnc(C)nc2C)c2ccccc2)cnc1F [Example 327, (1R,2S)-2-{[(2,4-dimethylpyrimidin-5-yl)oxy]methyl}-N-(6-fluoro-5-methoxypyridin-3-yl)-2-phenylcyclopropanecarboxamide] | 3 | 192 | – | – |
